Reference: ChEMBL document CHEMBL1129892, “Tetracyclic analogues of [+]-S 14297: Synthesis and determination of affinity and selectivity at cloned human dopamine D3 vs D2 receptors” (Bioorg Med Chem Lett, 1997)

Experiments:
D(2) dopamine receptor = D(2) dopamine receptor (Homo sapiens, UniProt P14416); format: cell membranes, CHO
D(3) dopamine receptor = D(3) dopamine receptor (Homo sapiens, UniProt P35462); test: biochemical
D(3) dopamine receptor, sequence (P35462 whole entry): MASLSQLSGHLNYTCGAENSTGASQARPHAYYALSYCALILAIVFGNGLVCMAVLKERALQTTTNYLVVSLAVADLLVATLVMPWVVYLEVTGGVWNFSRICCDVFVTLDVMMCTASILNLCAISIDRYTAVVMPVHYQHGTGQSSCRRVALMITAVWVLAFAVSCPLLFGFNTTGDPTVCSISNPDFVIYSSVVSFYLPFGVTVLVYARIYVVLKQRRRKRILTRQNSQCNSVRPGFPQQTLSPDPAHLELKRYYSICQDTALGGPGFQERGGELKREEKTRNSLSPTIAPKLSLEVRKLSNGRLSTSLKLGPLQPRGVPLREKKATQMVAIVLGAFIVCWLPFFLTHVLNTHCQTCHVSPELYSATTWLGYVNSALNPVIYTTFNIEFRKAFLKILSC
Description: Inhibition of [125 I]iodosulpiride binding to human Dopamine receptor D3 expressed in CHO cell membranes

D(2) dopamine receptor, sequence (P14416 whole entry): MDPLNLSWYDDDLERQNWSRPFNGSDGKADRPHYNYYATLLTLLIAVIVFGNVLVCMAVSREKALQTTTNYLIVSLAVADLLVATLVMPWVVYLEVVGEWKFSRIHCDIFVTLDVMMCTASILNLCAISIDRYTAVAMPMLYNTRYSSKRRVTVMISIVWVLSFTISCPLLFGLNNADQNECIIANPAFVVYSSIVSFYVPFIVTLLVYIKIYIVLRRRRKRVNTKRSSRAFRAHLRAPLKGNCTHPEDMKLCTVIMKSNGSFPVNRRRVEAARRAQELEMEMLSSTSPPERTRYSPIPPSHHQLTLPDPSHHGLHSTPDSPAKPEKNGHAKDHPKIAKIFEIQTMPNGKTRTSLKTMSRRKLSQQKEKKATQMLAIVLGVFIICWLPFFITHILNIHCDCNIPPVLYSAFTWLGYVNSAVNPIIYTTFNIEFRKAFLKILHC

Ki (D(2) dopamine receptor) [nM] | SMILES | Ki (D(3) dopamine receptor) [nM]
5010 | CC(C)CN1CCO[C@@H]2c3cc4c(cc3CC[C@H]21)CCO4 | 126
2510 | c1c2c(cc3c1CC[C@@H]1[C@@H]3OCCN1CC1CC1)OCC2 | 63.1
> 10000 | CCCN1CCO[C@H]2c3cc4c(cc3CC[C@H]21)CCO4 | –
12600 | CCCN1CCO[C@@H]2c3cc4c(cc3OC[C@H]21)CCO4 | –
398 | CCCN1CCO[C@@H]2c3cc4c(cc3CC[C@H]21)CCO4 | –

The remaining lines, values behind:

SMILES | Ki (D(2) dopamine receptor) [nM] | Ki (D(3) dopamine receptor) [nM]
c1ccc(CN2CCO[C@@H]3c4cc5c(cc4CC[C@H]32)CCO5)cc1 | > 10000 | > 10000
CN1CCO[C@@H]2c3cc4c(cc3CC[C@H]21)CCO4 | 398 | 79.4
CCCN1CCO[C@H]2c3cc4c(cc3OC[C@H]21)CCO4 | > 100000 | –
c1c2c(cc3c1CC[C@H]1NCCO[C@H]31)OCC2 | 1000 | 200
CCCN1CCC[C@@H]2c3cc4c(cc3CC[C@H]21)CCO4 | 501 | 25.1
CCCN(CCC)C1CCc2cc3c(cc2C1)OCC3 (stereo not given) | 251 | 12.6
c1ccc(CCN2CCO[C@@H]3c4cc5c(cc4CC[C@H]32)CCO5)cc1 | > 10000 | > 10000
